Experimental findings from the pKa sets of Baltruschat and Czodrowski (2020) are described below.

As a reminder, the pKa is the negative logarithm of the acid dissociation constant. As to `CCCCCCCCCCCC[NH2+]CCCN`, the pKa (basic group) is 8.37.

`Cc1cccc(/N=N/c2ccc(N(C)C)cc2)c1` returned a pKa (basic group) of 2.33.

Under “basic group”, `C=Cc1c(C)c2cc3nc(c(CC(=O)OC)c4[nH]c(cc5nc(cc1[nH]2)C(C)=C5CC)c(C)c4C(=O)NCC)[C@@H](CCC(=O)OC)[C@@H]3C` returned a pKa of 2.7.

`Cc1ccncn1`: for the setting “basic group”, the pKa was determined as 1.99.

For the compound `c1cc2nccnc2cn1`, the pKa (basic group) was determined as 2.5.

As for `CN(C)c1ccc(C#N)cc1`, the pKa (basic group) amounted to 1.78.

In the case of `Nc1cnccn1`, the pKa (basic group) amounted to 3.14.

`C1CCC2(CC1)N1CCCN12` (stereo not drawn) displayed a pKa (basic group) of 5.19.

`NC(=O)Cc1ccc(C(=O)O)cc1` displayed a pKa (acidic group) of 4.06.

As for `CC(=O)c1ccc(NN=C(C#N)C#N)cc1`, the pKa is, setting by setting: (acidic group) 5.85; (basic group) -0.77.

As to `CC(C)CCNc1ncnc2[nH]ncc12`, under “basic group”, the pKa was determined as 4.62.

In turn, `Cc1ccccc1C(=NCCCC[NH+](C)C)c1ccccc1C` gave a pKa (basic group) of 5.18.

In the case of `NCCc1ccc(Cl)cc1`, the pKa (basic group) turned out to be 9.66.

`O=C1CCCC1=O` came in with a pKa (acidic group) of 9.14.

In turn, `C[C@H]1C[C@@H]2CCC[C@@H]2N1C` displayed a pKa (basic group) of 10.1.

`O=C([O-])C[NH+](CC(=O)[O-])Cc1cc([N+](=O)[O-])ccc1O`: the pKa (acidic group) was 6.18.

Regarding `C#CCCCN(C)C`, the pKa (basic group) turned out to be 8.88.

`CC(C)(CN)CN` yielded a pKa (basic group) of 10.2.

`O=Cc1ccc(O)cc1Cl`: the pKa (acidic group) stood at 6.6.

`CCCCCc1c(-c2ccccc2)nn(-c2ccccc2)c1O`: the pKa (acidic group) amounted to 7.3.

The compound `CCCCCCCCCCCCCCN(CCO)CC(C)O` (stereo not drawn) displayed a pKa (basic group) of 6.3.

`N#CC(CCC(=O)O)c1ccccc1` (stereo not drawn) came in with a pKa (acidic group) of 4.4.

Compound `CC(N)=S` had a pKa (basic group) of -2.51.

Where the note is “basic group”, `CC[NH+](CC)CC(C)Nc1c2ccc(Cl)cc2nc2ccc(OC)cc12` (stereo not drawn) registered a pKa of 7.15.

Take `C=C(C)C(=O)NCCN(CC)CC`: the pKa (basic group) worked out at 9.37.

The compound `Cc1ccc2ccccc2n1` registered a pKa (basic group) of 5.69.

As to `CCC[NH2+]C(C)C(=O)O` (stereo not drawn), the pKa (acidic group) was determined as 2.21.

Turning to `O=C(Cc1ccccc1Nc1c(Cl)cccc1Cl)OCCCN1CCOCC1`, where the note is “basic group”, the pKa stood at 7.99.

For `CCOC(=O)/C=C(/C)O`, the pKa (acidic group) is 9.51.

In turn, `Cc1ccccc1C(=O)O` gave a pKa (acidic group) of 3.92.

As for `Oc1cc[nH+]nc1`, for the setting “acidic group”, the pKa is 1.07.

For `O=C1COC(=O)N1`, where the note is “acidic group”, the pKa was 5.84.

For `CCCCCCCCOCCN(C)C`, the pKa (basic group) was found to be 8.87.

`c1ccc(Cc2cc(-c3ccccc3)nnc2NCC[NH+]2CCOCC2)cc1` yielded a pKa (basic group) of 3.6.

As for `Cc1ccc(N)c(N)c1`, for the setting “basic group”, the pKa turned out to be 5.

`NS(=O)(=O)c1ccc(P(=O)([O-])[O-])cc1` registered a pKa (acidic group) of 10.

Turning to `CCc1c(C)nn(C)c1O`, the pKa (basic group) was determined as 3.5.

For `COc1cccc2c1CN(C1CC3CCC(C1)N3Cc1ccccc1)C2=O` (stereo not drawn), under “basic group”, the pKa stood at 8.68.

The compound `CO[n+]1ccccc1O` registered a pKa (acidic group) of -1.3.

Turning to `C(C[NH2+]CCc1nnn[nH]1)[NH2+]CCc1nnn[n-]1`, the pKa (acidic group) was 4.09.

The compound `CC(C)N1CCCC1` returned a pKa (basic group) of 11.2.

On to `COc1ccc([C@H]2C[C@@H]2C(=O)O)cc1`, for which the pKa (acidic group) was found to be 4.62.

Consider `CC#CC(=O)O`, for which, under “acidic group”, the pKa amounted to 2.63.

Consider `CC[C@]12CCCN3CCc4c(n(c5ccccc45)CC1)[C@@H]32`, for which the pKa (basic group) is 6.9.

`Nc1ccncn1` yielded a pKa (acidic group) of 18.4 and a pKa (basic group) of 5.7.

Take `CC(=O)CCCC(=O)O`: the pKa (acidic group) was determined as 4.66.

In the case of `CCC(C)NC(C)CC` (stereo not drawn), the pKa (basic group) was found to be 10.9.

`CCCCCCCCCCCCNCCCCCCCCCCCC` came in with a pKa (basic group) of 11.

Compound `O=C(O)c1ccnnc1` showed a pKa (acidic group) of 2.8.

`CCCC[NH2+]CCN` had a pKa (basic group) of 7.53.

Take `Nc1ncnc2ccccc12`: the pKa (basic group) was 5.79.

Take `CN1CC(O)C2=C/C(=N\O)C(=O)C=C21` (stereo not drawn): where the note is “acidic group”, the pKa is 8.6.

With `NC(=N\O)/C(N)=N/O`, the pKa stood at 11.3 (acidic group) and 2.97 (basic group).

In the case of `CC1NCCc2c1[nH]c1ccc(N)cc21` (stereo not drawn), for the setting “acidic group”, the pKa is 16.

Where the note is “basic group”, `O=C(CN1CCOCC1)c1ccccc1` registered a pKa of 5.97.

`O=CCCCC(=O)O` had a pKa (acidic group) of 5.02.

For the setting “basic group”, `C[NH+](C)CCNc1c2ccccc2nc2cccc([N+](=O)[O-])c12` came in with a pKa of 4.9.

`Cn1cnc2ccccc21` had a pKa (basic group) of 5.65.

For the setting “acidic group”, `CN(C)c1ccc(/C=N/O)cc1` returned a pKa of 11.3.

Take `Cc1c(Cl)ccc2c1nnn2O`: for the setting “acidic group”, the pKa is 4.09.

In turn, `NCCBr` gave a pKa (basic group) of 8.5.

As to `NC(Cc1cccnc1)C(=O)[O-]` (stereo not drawn), the pKa (basic group) turned out to be 9.26.

Where the note is “acidic group”, `N#CC[N+](=O)[O-]` displayed a pKa of 4.86.

For the setting “acidic group”, `Cc1[nH]c2ccccc2c1CC(=O)O` yielded a pKa of 4.67.

Turning to `O=[Se](O)c1ccccc1`, the pKa reads like this: (acidic group) 4.79; (basic group) -0.9.

For `O=C(O)c1cnccn1`, the pKa runs as follows: (acidic group) 2.7; (basic group) -0.7.

In turn, `Cc1cccc(C)c1N(C)C` returned a pKa (basic group) of 5.85.

Where the note is “basic group”, `CCCC(=O)OC(C)CN(C)C` (stereo not drawn) displayed a pKa of 8.27.
